According to patent publication US9468641B2, “Anti-inflammatory pharmaceutical composition comprising benzopyranyl tetracycles” (SEOUL NATIONAL UNIVERSITY R&DB FOUNDATION, priority 2014, dated 2016):

Assays:
NF-κB signaling (p65) = assay: Immunofluorescence staining of nuclear translocation of p65; type: cell-based; details: LPS stimulation, FIG. 5
Experimental: Cells were pretreated with ICM and LPS for 1 hr and then fixed with 4% paraformaldehyde for 30 min at 20° C. and with cold methanol for 10 min at −20° C. After permeabilization with 0.3% Triton X-100 and PBS for 10 min, the fixed cells were blocked with 1% normal horse serum for 1 hr and incubated with mouse anti-p65 antibody at 4° C. for 12˜16 hrs. After washing with PBS containing 0.05% Tween-20 (PBST), Alexa Fluor-488-labeled goat anti-mouse IgG antibody was added to the sample, incubated for 1 hr at room temperature and washed with PBST. Nuclei were visualized by DAPI staining. Samples were analyzed by fluorescence microscopy.

Il6, Il1b, Nos2, and Tnf = assay: RT-PCR of pro-inflammatory mediator expression; type: cell-based; details: FIG. 3
Experimental: For the analysis of gene expression, cells were incubated with ICM for 6 hrs in the presence of LPS (for control, cells were treated with DMSO in the absence of LPS). Total RNA was extracted from cells using TRIzol reagent. Reverse transcription was conducted using Superscript II (Invitrogen) and oligo (dT) primers. PCR amplification was conducted using a DNA Engine Tetrad Peltier Thermal Cycler (Bio-Rad) using specific primer sets (at an annealing temperature of 55-60° C. for 20-30 cycles). To analyze PCR products, each sample was electrophoresed on a 1% agarose gel. The Gapdh (Glyceraldehyde-3-phosphate dehydrogenase) gene was used as an internal control.

[1] = test system: LPS-mediated microglial activation; assay: LPS neuroinflammation model; type: in vivo, C57BL/6 mice; details: cortex, substantia nigra, hippocampus; ICM 2 and 10 mg/kg, FIG. 19
Experimental: All experiments were performed on 11-week-old male C57BL/6 mice. The animals were divided into four experimental groups (group 1: control treated with vehicle; group 2: treated with ICM; group 3: treated with LPS and vehicle; and group 4: treated with LPS and ICM). ICM (2 or 10 mg per kg body weight) or vehicle (distilled water containing 5% DMSO and 40% polyethylene glycol) was administered once a day for 4 days. LPS was administered at a dose of 5 mg/kg on day 2 for a single challenge.
Mice were anesthetized with diethyl ether, transcardially perfused with cold saline, and then fixed with 4% paraformaldehyde diluted in 0.1 M PBS. Brains or lumbar spinal cords were fixed using 4% PFA for 3 days and then cryoprotected with a 30% sucrose solution for 3 days. Three animals were used per experimental group. The fixed brains and spinal cords were embedded in OCT compound for frozen sectioning and then sectioned coronally at 20 μm. To detect LPS-induced microglial activation, each section was incubated with a rabbit anti-Iba-1 antibody and FluoroMyelin. The sections were visualized directly or incubated with Cy3-conjugated anti-rabbit IgG antibody. Also, the sections were stained with hematoxylin and eosin to assess inflammatory lesions.

HMGB2 and HMGB1 = assay: Immunoprecipitation analysis of post-translational modification; type: cell-based; details: western blotting, FIG. 18
Experimental: (§1) After exposure to ICM in the presence of LPS for 18 hrs, cells were lysed in subcellular fraction buffer (250 mM sucrose, 20 mM HEPES, 10 mM KCl, 1 mM EDTA, 1 mM EGTA, 1 mM DTT, and protease inhibitor cocktail), passed through a 25-Ga needle several times, and incubated on ice for 20 min. After centrifugation at 3,000 rpm for 5 min, the pellet and the supernatant were separated. The nuclear pellet was washed and then resuspended in standard lysis buffer with 10% glycerol and 0.1% SDS. The cytosolic fraction was obtained by centrifugation of the separated supernatant at 8,000 rpm for 15 min. The conditioned medium was collected for the analysis of the extracellular level of HMGBs and concentrated with Amicon Ultra 10K filters. The samples were analyzed by electrophoresis and western blotting.
For the analysis of post-translational modification levels on HMGB, immunoprecipitation was performed. […] The concentration of protein was measured by BCA assay, and the lysates were incubated overnight with an anti-phosphoserine antibody or an anti-acetylated lysine antibody at 4° C., followed by precipitation with a protein G immunoprecipitation kit (Sigma). Each of the samples was analyzed for HMGB2 level by western blot assays.

BV-2 cells = assay: Griess assay of LPS-induced nitrite release in BV-2 cells; type: cell-based; details: BV2 microglial cells, with or without LPS stimulation, FIG. 1
Experimental: (§2) Cells increase the secretion of nitrite when induced to be inflammatory, but decrease the secretion of nitrite in the presence of an anti-inflammatory agent. […] Cells were treated with the compounds in the absence or presence of 100 ng/mL LPS (lipopolysaccharide). After 24 hrs of incubation, the cell culture media were reacted with Griess reagent (0.1% naphthylethylenediamine dihydrochloride and 1% sulfanilamide in 2% phosphoric acid). Absorbance was measured at 550 nm using a microplate reader, and the level of nitrite was estimated by comparison with a sodium nitrite standard curve.

[2] = test system: HAPI cells, Primary neuroblastoma, and RAW 264.7 cells; assay: Griess assay of nitrite release in further cell lines; type: cell-based; details: LPS stimulation, FIG. 2
Experimental: as §2

EAE model = assay: Experimental auto-immune encephalitis (EAE) model; type: in vivo, C57BL/6 mice
HMGB2 [3] = target: T1, HMGB2 (Mus musculus, UniProt P30681); assay: Subcellular fractionation and secretion analysis; type: cell-based; details: LPS stimulation, western blotting, FIG. 17
T1 construct: endogenous in cells
T1 sequence (P30681 1-210): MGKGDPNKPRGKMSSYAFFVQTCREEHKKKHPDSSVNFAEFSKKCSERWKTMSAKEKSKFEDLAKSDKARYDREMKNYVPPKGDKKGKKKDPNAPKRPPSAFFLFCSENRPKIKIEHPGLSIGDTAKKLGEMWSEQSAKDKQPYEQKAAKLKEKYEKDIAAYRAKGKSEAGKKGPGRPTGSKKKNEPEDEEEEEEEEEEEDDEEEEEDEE
Experimental: as §1

HMGB2 [4] = target: T1, HMGB2; assay: Griess assay in BV-2 cells with siRNA-mediated HMGB2 knockdown; type: cell-based; details: normalized to DMSO treatment, FIG. 16
Experimental: as §2
The siRNA transfection of BV-2 microglial cells was performed using Lipofectamine™ 2000 (Invitrogen). Forty-eight hours after transfection, the cells were used for further experiments.

translocation of HMGB2 from nucleus to cytoplasm and extracellular milieu (HMGB2 [3]): the translocation was suppressed by ICM
Structure (SMILES): CC1(C)Oc2cc(O)ccc2C2C1=CCn1c(=O)n(-c3ccccc3)c(=O)n12 (stereo not shown) [ICM]
nuclear translocation of p65 (NF-κB signaling (p65)): suppressed NF-κB signaling
LPS-induced expression of pro-inflammatory genes (Il6, Il1b, Nos2, and Tnf): suppressed the LPS-induced expression of pro-inflammatory genes in a dose-dependent manner
LPS-mediated microglial activation (Iba-1+ cell number) [1]: effectively blocked LPS-mediated microglial activation in all the brain parts
LPS-induced phosphorylation and acetylation of HMGB2 and HMGB1 (HMGB2 and HMGB1): the post-translational modification was suppressed by ICM
LPS-induced nitrite release (BV-2 cells): efficiently blocked LPS-induced nitrite release from BV2 microglial cells in a dose-dependent manner
nitrite release [2]: inhibit nitrite release in a broad range of cell lines
HMGB2 levels in cerebrospinal fluid and serum (EAE model; ELISA, FIG. 24): effectively suppressed the release of HMGB2 into body fluids
microglial activation in spinal cords (anti-Iba-1 staining) (EAE model; FIG. 21): clearly suppressed by ICM treatment
mRNA levels of proinflammatory cytokines and chemokines in microglia (EAE model; RT-PCR, microglial cells from brain of EAE mice, FIG. 23): decreased in the ICM-treated group
mean clinical score (0-5 scale) (EAE model; days after MOG immunization, FIG. 20): reduced with ICM treatment
HMGB1 or HMGB2 levels in spinal cord sections (EAE model; immunofluorescence, FIG. 25): effectively reduced the EAE-induced increase of HMGB1 or HMGB2 levels
MAP-2 levels in ventral horn and ventral column (EAE model; immunofluorescence, FIG. 26): effectively recovered by ICM administration
inflammatory lesions in spinal cords (H&E staining) (EAE model; lumbar spinal cord, 15 days after EAE induction, FIG. 22): substantially attenuated by ICM treatment
demyelination (anti-MBP staining) (EAE model; spinal cord sections, FIG. 27): suppresses the demyelination in the EAE model
anti-inflammatory effect on LPS-induced nitrite release under HMGB2 knockdown (HMGB2 [4]): anti-inflammatory effect of ICM was decreased by HMGB2 knockdown
